PubChem BioAssay (NCI)
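Cells were grown in 96-well plates and exposed to each compound for 48 hours at five concentrations; endpoints were interpolated linearly between bracketing concentrations, or set to the highest concentration if not reached. At the GI50, growth is halved. Definition used: TGI = concentration required for complete inhibition of growth.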

What was measured:
Test in all cases: DTP human tumour cell line panel, 48 h
786-0 renal = test system: 786-0 renal
A498 renal = test system: A498 renal
A549 NSCLC = test system: A549 NSCLC
ACHN renal = test system: ACHN renal
BT-549 breast = test system: BT-549 breast
CAKI-1 renal = test system: CAKI-1 renal
CCRF-CEM leukemia = test system: CCRF-CEM leukemia
COLO 205 colon = test system: COLO 205 colon
DU-145 prostate = test system: DU-145 prostate
EKVX NSCLC = test system: EKVX NSCLC
HCC-2998 colon = test system: HCC-2998 colon
HCT-116 colon = test system: HCT-116 colon
HCT-15 colon = test system: HCT-15 colon
HL-60(TB) leukemia = test system: HL-60(TB) leukemia
HOP-62 NSCLC = test system: HOP-62 NSCLC
HOP-92 NSCLC = test system: HOP-92 NSCLC
HS 578T breast = test system: HS 578T breast
HT29 colon = test system: HT29 colon
IGROV1 ovarian = test system: IGROV1 ovarian
K-562 leukemia = test system: K-562 leukemia
KM12 colon = test system: KM12 colon
LOX IMVI melanoma = test system: LOX IMVI melanoma
M14 melanoma = test system: M14 melanoma
MALME-3M melanoma = test system: MALME-3M melanoma
MCF7 breast = test system: MCF7 breast
MDA-MB-231 breast = test system: MDA-MB-231 breast
MDA-MB-435 = test system: MDA-MB-435
MOLT-4 leukemia = test system: MOLT-4 leukemia
NCI-H226 lung = test system: NCI-H226 lung

O=c1[nH]c2ccc(N=Cc3c(O)[nH]c4ccccc34)cc2[nH]1
GI50 (786-0 renal): > 25 µM
TGI (786-0 renal): > 25 µM
GI50 (A498 renal): > 25 µM
TGI (A498 renal): > 25 µM
GI50 (A549 NSCLC): > 25 µM
TGI (A549 NSCLC): > 25 µM
GI50 (ACHN renal): > 25 µM
TGI (ACHN renal): > 25 µM
GI50 (BT-549 breast): > 25 µM
TGI (BT-549 breast): > 25 µM
GI50 (CAKI-1 renal): > 25 µM
TGI (CAKI-1 renal): > 25 µM
GI50 (CCRF-CEM leukemia): 24.2 µM
TGI (CCRF-CEM leukemia): > 25 µM
GI50 (COLO 205 colon): > 25 µM
TGI (COLO 205 colon): > 25 µM
GI50 (DU-145 prostate): > 20.4 µM
TGI (DU-145 prostate): > 25 µM
GI50 (EKVX NSCLC): > 25 µM
TGI (EKVX NSCLC): > 25 µM
GI50 (HCC-2998 colon): > 25 µM
TGI (HCC-2998 colon): > 25 µM
GI50 (HCT-116 colon): > 25 µM
TGI (HCT-116 colon): > 25 µM
GI50 (HCT-15 colon): > 25 µM
TGI (HCT-15 colon): > 25 µM
GI50 (HL-60(TB) leukemia): > 25 µM
TGI (HL-60(TB) leukemia): > 25 µM
GI50 (HOP-62 NSCLC): > 17.7 µM
TGI (HOP-62 NSCLC): > 25 µM
GI50 (HOP-92 NSCLC): 23.2 µM
TGI (HOP-92 NSCLC): > 25 µM
GI50 (HS 578T breast): > 6.4 µM
TGI (HS 578T breast): > 25 µM
GI50 (HT29 colon): > 25 µM
TGI (HT29 colon): > 25 µM
GI50 (IGROV1 ovarian): > 25 µM
TGI (IGROV1 ovarian): > 25 µM
GI50 (K-562 leukemia): > 25 µM
TGI (K-562 leukemia): > 25 µM
GI50 (KM12 colon): > 25 µM
TGI (KM12 colon): > 25 µM
GI50 (LOX IMVI melanoma): > 25 µM
TGI (LOX IMVI melanoma): > 25 µM
GI50 (M14 melanoma): > 25 µM
TGI (M14 melanoma): > 25 µM
GI50 (MALME-3M melanoma): > 25 µM
TGI (MALME-3M melanoma): > 25 µM
GI50 (MCF7 breast): > 25 µM
TGI (MCF7 breast): > 25 µM
GI50 (MDA-MB-231 breast): > 25 µM
TGI (MDA-MB-231 breast): > 25 µM
GI50 (MDA-MB-435): > 25 µM
TGI (MDA-MB-435): > 25 µM
GI50 (MOLT-4 leukemia): > 25 µM
TGI (MOLT-4 leukemia): > 25 µM
GI50 (NCI-H226 lung): > 25 µM
TGI (NCI-H226 lung): > 25 µM
